Experimental data taken from PMC6414696 (mBio, 2019).
In brackets after ≈: the same amount, converted by molar mass. Where two headings read alike, the source gives them in different places.

Experiments:
[1] = molecular target: OXA-66 β-lactamase (Acinetobacter baumannii, UniProt Q58XD2); assay: β-Lactamase steady-state kinetic analysis, OXA-66; type: biochemical, A. baumannii; conditions: OXA-66; data not shown
[2] = tested on: A. baumannii clinical isolates; assay: microbe, parasite or virus in culture; type: cell-based, Acinetobacter baumannii; conditions: for MIC: Acinetobacter baumannii
[3] = tested on: A. baumannii isolates; conditions: panel of A. baumannii isolates in a previous study; cited from earlier work
[4] = tested on: A. baumannii (ATCC 17978); type: cell-based, Acinetobacter baumannii; conditions: ETX2514 at 4 mg/liter in combination
[5] = tested on: A. baumannii ARC5955; assay: Neutropenic murine thigh infection model; type: in vivo; conditions: thigh tissue, CD-1 mice, 24 h after initiation of therapy, 75 mg/kg SC/q3h; for Change in log10 CFU/g: 75 mg/kg
[6] = tested on: A. nosocomialis (M2); type: cell-based, Acinetobacter nosocomialis; conditions: ETX2514 at 4 mg/liter in combination
[7] = tested on: A. baumannii ARC5955; conditions: A. baumannii ARC5955 carrying blaTEM-1, blaADC-82, blaOXA-23, blaOXA-66; cited from earlier work

Chain of OXA-66 β-lactamase (Q58XD2 entry or part of it): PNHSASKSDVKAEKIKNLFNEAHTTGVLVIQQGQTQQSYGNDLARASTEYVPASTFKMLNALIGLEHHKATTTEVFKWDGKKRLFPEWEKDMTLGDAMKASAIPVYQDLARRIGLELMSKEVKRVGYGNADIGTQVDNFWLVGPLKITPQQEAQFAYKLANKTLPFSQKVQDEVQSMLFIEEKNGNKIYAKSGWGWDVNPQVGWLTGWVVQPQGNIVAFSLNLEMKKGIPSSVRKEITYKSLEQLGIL

Question: Which results are given for `CC1(C)[C@H](C(=O)O)N2C(=O)C[C@H]2S1(=O)=O` [Sulbactam]?
Answer: substrate quality for the enzyme [1]: very poor substrate; MIC90 ([2]; 72 WRAMC A. baumannii isolates, ETX2514 at 4 mg/liter in combination): 32 µg/mL; isolates resistant (MIC ≥ 16 mg/liter) ([2]; 72 WRAMC isolates (34/72)): 47%; MIC ([2]; strain AB001, ETX2514 at 4 mg/liter in combination): 16 µg/mL; MIC ([2]; strain AB002, ETX2514 at 4 mg/liter in combination): 8 µg/mL; MIC ([2]; strain AB003, ETX2514 at 4 mg/liter in combination): 8 µg/mL; MIC ([2]; strain AB004, ETX2514 at 4 mg/liter in combination): 4 µg/mL; MIC ([2]; strain AB005, ETX2514 at 4 mg/liter in combination): 4 µg/mL; MIC ([2]; strain AB006, ETX2514 at 4 mg/liter in combination): 4 µg/mL; MIC ([2]; strain AB007, ETX2514 at 4 mg/liter in combination): 4 µg/mL; MIC ([2]; strain AB008, ETX2514 at 4 mg/liter in combination): 4 µg/mL; MIC ([2]; strain AB009, ETX2514 at 4 mg/liter in combination): 4 µg/mL; MIC ([2]; strain AB010, ETX2514 at 4 mg/liter in combination): 4 µg/mL; MIC ([2]; strain AB011, ETX2514 at 4 mg/liter in combination): 8 µg/mL; MIC ([2]; strain AB012, ETX2514 at 4 mg/liter in combination): 4 µg/mL; MIC ([2]; strain AB013, ETX2514 at 4 mg/liter in combination): 4 µg/mL; MIC ([2]; strain AB014, ETX2514 at 4 mg/liter in combination): 4 µg/mL; MIC ([2]; strain AB015, ETX2514 at 4 mg/liter in combination): 4 µg/mL; MIC ([2]; strain AB016, ETX2514 at 4 mg/liter in combination): 4 µg/mL; MIC ([2]; strain AB017, ETX2514 at 4 mg/liter in combination): 32 µg/mL; MIC ([2]; strain AB018, ETX2514 at 4 mg/liter in combination): 64 µg/mL; MIC ([2]; strain AB019, ETX2514 at 4 mg/liter in combination): 16 µg/mL; MIC ([2]; strain AB020, ETX2514 at 4 mg/liter in combination): 16 µg/mL; MIC ([2]; strain AB021, ETX2514 at 4 mg/liter in combination): 16 µg/mL; MIC ([2]; strain AB022, ETX2514 at 4 mg/liter in combination): 16 µg/mL; MIC ([2]; strain AB023, ETX2514 at 4 mg/liter in combination): 16 µg/mL; MIC ([2]; strain AB024, ETX2514 at 4 mg/liter in combination): 16 µg/mL; MIC ([2]; strain AB025, ETX2514 at 4 mg/liter in combination): 16 µg/mL; MIC ([2]; strain AB026, ETX2514 at 4 mg/liter in combination): 16 µg/mL; MIC ([2]; strain AB027, ETX2514 at 4 mg/liter in combination): 16 µg/mL; MIC ([2]; strain AB028, ETX2514 at 4 mg/liter in combination): 16 µg/mL; MIC ([2]; strain AB029, ETX2514 at 4 mg/liter in combination): 16 µg/mL; MIC ([2]; strain AB030, ETX2514 at 4 mg/liter in combination): 16 µg/mL; MIC ([2]; strain AB031, ETX2514 at 4 mg/liter in combination): 16 µg/mL; MIC ([2]; strain AB032, ETX2514 at 4 mg/liter in combination): 16 µg/mL; MIC ([2]; strain AB033, ETX2514 at 4 mg/liter in combination): 64 µg/mL; MIC ([2]; strain AB034, ETX2514 at 4 mg/liter in combination): 16 µg/mL; MIC ([2]; strain AB035, ETX2514 at 4 mg/liter in combination): 16 µg/mL; MIC ([2]; strain AB036, ETX2514 at 4 mg/liter in combination): 16 µg/mL; MIC ([2]; strain AB037, ETX2514 at 4 mg/liter in combination): 64 µg/mL; MIC ([2]; strain AB038, ETX2514 at 4 mg/liter in combination): 16 µg/mL; MIC ([2]; strain AB039, ETX2514 at 4 mg/liter in combination): 4 µg/mL; MIC ([2]; strain AB040, ETX2514 at 4 mg/liter in combination): 32 µg/mL; MIC ([2]; strain AB041, ETX2514 at 4 mg/liter in combination): 16 µg/mL; MIC ([2]; strain AB042, ETX2514 at 4 mg/liter in combination): 4 µg/mL; MIC ([2]; strain AB043, ETX2514 at 4 mg/liter in combination): 4 µg/mL; MIC ([2]; strain AB044, ETX2514 at 4 mg/liter in combination): 4 µg/mL; MIC ([2]; strain AB045, ETX2514 at 4 mg/liter in combination): 2 µg/mL; MIC ([2]; strain AB046, ETX2514 at 4 mg/liter in combination): 4 µg/mL; MIC ([2]; strain AB047, ETX2514 at 4 mg/liter in combination): 4 µg/mL; MIC ([2]; strain AB048, ETX2514 at 4 mg/liter in combination): 4 µg/mL; MIC ([2]; strain AB049, ETX2514 at 4 mg/liter in combination): 4 µg/mL; MIC ([2]; strain AB050, ETX2514 at 4 mg/liter in combination): 4 µg/mL; MIC ([2]; strain AB051, ETX2514 at 4 mg/liter in combination): 2 µg/mL; MIC ([2]; strain AB052, ETX2514 at 4 mg/liter in combination): 64 µg/mL; MIC ([2]; strain AB053, ETX2514 at 4 mg/liter in combination): 32 µg/mL; MIC ([2]; strain AB054, ETX2514 at 4 mg/liter in combination): 64 µg/mL; MIC ([2]; strain AB055, ETX2514 at 4 mg/liter in combination): 16 µg/mL; MIC ([2]; strain AB056, ETX2514 at 4 mg/liter in combination): 8 µg/mL; MIC ([2]; strain AB057, ETX2514 at 4 mg/liter in combination): 16 µg/mL; MIC ([2]; strain AB058, ETX2514 at 4 mg/liter in combination): 32 µg/mL; MIC ([2]; strain AB059, ETX2514 at 4 mg/liter in combination): 32 µg/mL; MIC ([2]; strain AB060, ETX2514 at 4 mg/liter in combination): 8 µg/mL; MIC ([2]; strain AB061, ETX2514 at 4 mg/liter in combination): 8 µg/mL; MIC ([2]; strain AB062, ETX2514 at 4 mg/liter in combination): 8 µg/mL; MIC ([2]; strain AB063, ETX2514 at 4 mg/liter in combination): 32 µg/mL; MIC ([2]; strain AB064, ETX2514 at 4 mg/liter in combination): 8 µg/mL; MIC ([2]; strain AB065, ETX2514 at 4 mg/liter in combination): 8 µg/mL; MIC ([2]; strain AB066, ETX2514 at 4 mg/liter in combination): 4 µg/mL; MIC ([2]; strain AB067, ETX2514 at 4 mg/liter in combination): 4 µg/mL; MIC ([2]; strain AB068, ETX2514 at 4 mg/liter in combination): 4 µg/mL; MIC ([2]; strain AB069, ETX2514 at 4 mg/liter in combination): 4 µg/mL; MIC ([2]; strain AB070, ETX2514 at 4 mg/liter in combination): 32 µg/mL; MIC ([2]; strain AB071, ETX2514 at 4 mg/liter in combination): 8 µg/mL; MIC ([2]; strain AB072, ETX2514 at 4 mg/liter in combination): 4 µg/mL; MIC ([2]; strain CCF 1MR, carbapenem resistant, ETX2514 at 4 mg/liter in combination): 32 µg/mL; MIC ([2]; strain CCF 2MR, carbapenem resistant, ETX2514 at 4 mg/liter in combination): 16 µg/mL; MIC ([2]; strain CCF 3MR, carbapenem resistant, ETX2514 at 4 mg/liter in combination): 4 µg/mL; MIC ([2]; strain CCF 4MR, carbapenem resistant, ETX2514 at 4 mg/liter in combination): 16 µg/mL; MIC ([2]; strain CCF 5MR, carbapenem resistant, ETX2514 at 4 mg/liter in combination): 16 µg/mL; MIC ([2]; strain CCF 6MR, carbapenem resistant, ETX2514 at 4 mg/liter in combination): 16 µg/mL; MIC ([2]; strain CCF 7MR, carbapenem resistant, ETX2514 at 4 mg/liter in combination): 32 µg/mL; MIC ([2]; strain CCF 8MR, carbapenem resistant, ETX2514 at 4 mg/liter in combination): 8 µg/mL; MIC ([2]; strain UH AB202, carbapenem resistant, ETX2514 at 4 mg/liter in combination): 16 µg/mL; MIC ([2]; strain UH AB461, carbapenem resistant, ETX2514 at 4 mg/liter in combination): 8 µg/mL; MIC ([2]; strain UH AB477, carbapenem resistant, ETX2514 at 4 mg/liter in combination): 16 µg/mL; MIC ([2]; strain UH AB487, carbapenem resistant, ETX2514 at 4 mg/liter in combination): 16 µg/mL; MIC ([2]; strain UH AB489, carbapenem resistant, ETX2514 at 4 mg/liter in combination): 16 µg/mL; MIC ([2]; strain UH AB490, carbapenem resistant, ETX2514 at 4 mg/liter in combination): 16 µg/mL; MIC ([2]; strain UH AB491, carbapenem resistant, ETX2514 at 4 mg/liter in combination): 16 µg/mL; MIC ([2]; strain UH AB636, carbapenem resistant, ETX2514 at 4 mg/liter in combination): 16 µg/mL; MIC ([2]; strain UH AB660, carbapenem resistant, ETX2514 at 4 mg/liter in combination): 16 µg/mL; MIC ([2]; strain UH AB667, carbapenem resistant, ETX2514 at 4 mg/liter in combination): 32 µg/mL; MIC ([2]; strain VA-432, carbapenem resistant, ETX2514 at 4 mg/liter in combination): 16 µg/mL; MIC ([2]; strain VA-433, carbapenem resistant, ETX2514 at 4 mg/liter in combination): 16 µg/mL; MIC ([2]; strain VA-434, carbapenem resistant, ETX2514 at 4 mg/liter in combination): 16 µg/mL; MIC ([2]; strain VA-435, carbapenem resistant, ETX2514 at 4 mg/liter in combination): 16 µg/mL; MIC ([2]; strain VA-436, carbapenem resistant, ETX2514 at 4 mg/liter in combination): 16 µg/mL; MIC ([2]; strain VA-437, carbapenem resistant, ETX2514 at 4 mg/liter in combination): 8 µg/mL; MIC ([2]; strain VA-438, carbapenem resistant, ETX2514 at 4 mg/liter in combination): 8 µg/mL; MIC ([2]; strain VA-505, carbapenem resistant, ETX2514 at 4 mg/liter in combination): 8 µg/mL; MIC90 [3]: 64 µg/mL (≈ 274 µM); MIC ([4]; ATCC 17978 ΔadeB/ΔadeJ): 1 µg/mL; MIC ([4]; ATCC 17978 ΔadeB): 1 µg/mL; MIC ([4]; ATCC 17978 ΔadeJ): 1 µg/mL; Log10 CFU/g [5]: 9.0 log10 CFU/g; Change in log10 CFU/g [5]: 2.5 log10 CFU/g; Change in log10 CFU/g ([5]; listed as sulbactam): > 2 log10 CFU/g; MIC ([6]; M2 WT): 2 µg/mL; MIC ([6]; M2 ΔadeB/ΔadeJ): 2 µg/mL; MIC ([6]; M2 ΔadeJ): 2 µg/mL; MIC [7]: 64 µg/mL (≈ 274 µM)
